Source: PMC10907465 (Inflammopharmacology, 2023)
Read-outs that look alike come from different tables or passages of the source.

How the values were obtained:
Assay type in all cases: in vivo, rat
TGF-β1 = details: rats
Procedure: (§1) Thirty-five free pathogenic Sprague–Dawley male albino rats (100–120 g) were obtained from the Egyptian Drug Authority (EDA) animal house. Randomly, the animals were divided into seven groups, (each 5 rats) as follows: Group I: normal control group, Group II: positive control group on the 7th day only received LPS (Lipopolysaccharides) at a dose of 10 mg/kg bw. i.p. suspended in sterile saline solution 0.9% (Ijinu et al. [2022]), Group III dexamethasone positive control (5 mg/kg i.p.) (Murillo-Cuesta et al. [2023]) for 7 days followed by LPS single inflammatory dose model (10 mg/kg b. w i.p.). On the 7th day, 1 h after the last dexamethasone dose. […]
Lung tissues were collected and fixed in 10% neutral buffered formaldehyde for 24 h to stabilize and fix tissue proteins. […] The same position of the lungs in five mice was observed through a microscope, and the histological lesion of the lung was evaluated through the incidence of congestion, inflammation, and hemorrhage, severity scoring of neutrophil infiltrates, and proportion of airspace areas. […]

IL-1β = assay: LPS-induced ALI in rats: IL-1β ELISA
Procedure: (§2) Thirty-five free pathogenic Sprague–Dawley male albino rats (100–120 g) were obtained from the Egyptian Drug Authority (EDA) animal house. Randomly, the animals were divided into seven groups, (each 5 rats) as follows: Group I: normal control group, Group II: positive control group on the 7th day only received LPS (Lipopolysaccharides) at a dose of 10 mg/kg bw. i.p. suspended in sterile saline solution 0.9% (Ijinu et al. [2022]), Group III dexamethasone positive control (5 mg/kg i.p.) (Murillo-Cuesta et al. [2023]) for 7 days followed by LPS single inflammatory dose model (10 mg/kg b. w i.p.). On the 7th day, 1 h after the last dexamethasone dose. […] All animals were anesthetized to obtain blood in heparinized capillary tubes for pro-inflammatory cytokines (TNF-α, IL-1, IL-6, and MPO) ELISA examination in addition to lung tissues for determination of antioxidant enzymes (SOD, Catalase, GSH and MDA), real-time PCR (p38.MAPK14 and CY450P2E1), western blot (NF-κB p65), histological lung tissue scoring and immunohistochemistry examination (TGF-β1).
(§3) Rat TNF-α (Catalog No: MBS2507393 96 T/48 T/24 T), IL-6 (Catalog No: MBS355410), IL-1β (Catalog no. MBS825017), MPO (Catalog No. MBS2019590) ELISA kits were obtained from MyBiosource, San Diego, USA.

SOD = assay: LPS-induced ALI in rats: pulmonary SOD; details: lung tissue
Procedure: as §2

MDA = assay: LPS-induced ALI in rats: pulmonary MDA; details: lung tissue
Procedure: as §2

MPO = details: ELISA, rats
Procedure: as §2, §3

TNF-α = details: ELISA, rats
Procedure: as §2, §3

Catalase = assay: LPS-induced ALI in rats: pulmonary catalase; details: lung tissue
Procedure: as §2

CY450P2E1 = assay: LPS-induced ALI in rats: real-time PCR of CY450P2E1 gene in lung; details: lung tissue
Procedure: as §1
(§4) Primers were utilized in a 25- µl reaction containing 12.5 µl of the 2 × QuantiTect SYBR Green PCR Master Mix (StrateGene® MX3005P, Qiagen, Germany), 0.25 µl of Revert Aid reverse transcriptase (200 U/µL) (Thermo Fisher, Germany), 0.5 µl of each primer of 20 pmol concentration, 8.25 µl of water, and 3 µl of RNA template. […] Amplification curves and Ct values were determined by the Strata gene MX3005P software, version 3 (Agilent, California, USA). […]

P38.MAPK14 = assay: LPS-induced ALI in rats: real-time PCR of P38 MAPK gene in lung; details: lung tissue
Procedure: as §1, §4

GSH = assay: LPS-induced ALI in rats: pulmonary GSH; details: lung tissue
Procedure: as §2

lung tissues = assay: LPS-induced ALI in rats: H&E histopathology and histological scoring of pulmonary inflammation; details: for Proportion of airspace area: airspace area / total area of one view, 400×; for Incidence of congestion / Incidence of hemorrhage / Severity of neutrophil infiltration: lung H&E
Procedure: as §2
Lung tissues were collected and fixed in 10% neutral buffered formaldehyde for 24 h to stabilize and fix tissue proteins. Dehydration, clearing, and paraffin infiltration and embedding were performed, and then wax blocks were sectioned by microtome into 5 µ sections and stained with Hematoxylin and Eosin Stain. Hematoxylin staining was performed according Ehrlich's Hematoxylin (Ehrlich [1886]) and eosin staining was done according to Avwioro ([2011]). Anti-Transforming Growth Factor-β (TGF-β) antibody immunohistochemistry stain (Arigo Biolaboratories, ARG 56429) was also performed, and Immuno-histochemical staining was performed according to Bajracharya et al. ([2017]). The same position of the lungs in five […] was observed through a microscope, and the histological lesion of the lung was evaluated through the incidence of congestion, inflammation, and hemorrhage, severity scoring of neutrophil infiltrates, and proportion of airspace areas. The level of severity was judged from – to +++, representing none to severe. The airspace proportion is the ratio of the airspace area and the total area of one view under 400 × magnifications (Wang et al. [2018]). According to Xue et al. ([2011]) & Ai-Li Huang et al. ([2014]): the semi-quantitative criterion for TGF-β1 staining intensity was estimated using a four-tiered scoring system: negative (−), no staining at all; weak (+), weak staining regardless of positive cell percentages or moderate staining of ≤ 30% of cells; moderate (++), moderate staining of > 30% of cells or strong staining of ≤ 50% of cells; strong (+++), strong staining of > 50% of cells. Low expression of TGF-β1 was defined as (-) or ( +), and High expression was defined as (++) or (+++).

NF-κB p65 = details: western blot, lung, relative band intensity (ratio of AU to internal control), rats
Procedure: as §1
Samples were separated on a polyacrylamide gel; the procedure was abbreviated as SDS-PAGE, or Sodium Dodecyl Sulfate Polyacrylamide Gel Electrophoresis, a standard technique for separating proteins according to their molecular weight. […] Imaging and data analysis quantitation: The chemiluminescent substrate (Clarity TM Western ECL substrate, Bio-Rad cat# 170-5060) was applied to the blot according to the manufacturer’s recommendation.

IL-6 = assay: LPS-induced ALI in rats: IL-6 ELISA
Procedure: as §2, §3

[1] = dexamethasone 5 mg/kg i.p. 7 days + LPS 10 mg/kg i.p.

## C[C@@H]1C[C@H]2[C@@H]3CCC4=CC(=O)C=C[C@]4(C)[C@@]3(F)[C@@H](O)C[C@]2(C)[C@@]1(O)C(=O)CO [Dexamethasone, dexamethasone]
TGF-β1; [1]
  TGF-β1 immunohistochemical expression in lung: + +
IL-1β; [1]
  IL-β1: 48.77 ± 1.995^***b
SOD; [1]
  SOD: 0.8047 ± 0.041^*b
MDA; [1]
  MDA: 20.69 ± 2.49^***b
MPO; [1]
  MPO: 45.50 ± 2.926^***b
TNF-α; [1]
  TNF-α: 91.27 ± 1.940^***b
Catalase; [1]
  Catalase: 0.098 ± 0.006^*b
CY450P2E1; [1]
  CY450P2E1 Fold change: 5.345 ± 0.3346^***b Fold change
P38.MAPK14; [1]
  P38 MAPK Fold change: 3.585 ± 0.2314^***b Fold change
GSH; [1]
  GSH: 1.174 ± 0.1565^**b
Lung tissues; [1]
  Proportion of airspace area: 4.89%
  H&E histological examination of lung tissue (finding in words): collapsed alveoli in some areas, while other areas showed emphysema
  Incidence of congestion: 4/8
  Incidence of hemorrhage: 1/8
  Severity of neutrophil infiltration: ++
NF-κB p65; [1]
  Nf-ĸB: 3.907 ± 0.048
IL-6; [1]
  IL-6: 58.87 ± 1.38^***b

## Lipopolysaccharide [LPS]
TGF-β1; LPS 10 mg/kg i.p. only
  TGF-β1 immunohistochemical expression in lung: + +
IL-1β; LPS 10 mg/kg i.p. only
  IL-β1: 112.2 ± 3.143^***a
SOD; LPS 10 mg/kg i.p. only
  SOD: 0.4713 ± 0.041^*a
MDA; LPS 10 mg/kg i.p. only
  MDA: 42.15 ± 0.800^***a
MPO; LPS 10 mg/kg i.p. only
  MPO: 102.4 ± 3.496^***a
TNF-α; LPS 10 mg/kg i.p. only
  TNF-α: 157.0 ± 4.917^***a
Catalase; LPS 10 mg/kg i.p. only
  Catalase: 0.2153 ± 0.001^*a
CY450P2E1; LPS 10 mg/kg i.p. only
  CY450P2E1 Fold change: 12.68 ± 0.2038^***a Fold change
P38.MAPK14; LPS 10 mg/kg i.p. only
  P38 MAPK Fold change: 9.682 ± 0.1741^***a Fold change
GSH; LPS 10 mg/kg i.p. only
  GSH: 0.4737 ± 0.038^*a
Lung tissues; LPS 10 mg/kg i.p. only
  H&E histological examination of lung tissue (finding in words): collapsed alveoli in some areas, while other areas showed emphysema
  Proportion of airspace area: 2.66%
  Incidence of congestion: 5/8
  Incidence of hemorrhage: 2/8
  Severity of neutrophil infiltration: ++++
NF-κB p65; LPS 10 mg/kg i.p. only
  Nf-ĸB: 3.973 ± 0.014^***a
IL-6; LPS 10 mg/kg i.p. only
  IL-6: 126.1 ± 3.75^***a
